Square brackets hold non-standard residues; d marks the D form. Ends that are not written are not given here. Peptide text beside a SMILES is read from it. Nle = CCCC[C@H](N)C(=O)O
How the values were obtained:
[1] = target: T1, cultured rat pituitary cells (Rattus norvegicus, UniProt P35353); test: Block of ACTH and β-endorphin secretion by cultured rat pituitary cells by CRF antagonists (procedure of Example XLIII); type: cell-based; conditions: for secretion of ACTH and β-END-LI (antagonist test): general procedure of Example XLIII
T1 sequence (P35353 24-415): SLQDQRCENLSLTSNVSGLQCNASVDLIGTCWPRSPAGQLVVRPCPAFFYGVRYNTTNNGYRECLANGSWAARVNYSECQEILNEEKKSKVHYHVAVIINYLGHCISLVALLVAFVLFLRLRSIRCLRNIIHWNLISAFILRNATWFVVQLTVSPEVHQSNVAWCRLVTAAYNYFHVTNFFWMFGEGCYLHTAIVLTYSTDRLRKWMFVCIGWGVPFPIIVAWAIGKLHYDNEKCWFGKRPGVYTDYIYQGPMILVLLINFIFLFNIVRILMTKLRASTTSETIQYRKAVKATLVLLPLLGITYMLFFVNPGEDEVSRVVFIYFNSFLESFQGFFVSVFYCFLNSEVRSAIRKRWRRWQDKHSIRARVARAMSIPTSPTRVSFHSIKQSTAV
Method: (§1) The effectiveness of synthetic CRF antagonists to block the secretion of ACTH and B-endorphin by cultured rat pituitary cells is measured using the procedure as generally set forth in Vale et al., Endocrinology, 91, 562 (1972). In vivo testing is carried out using the general procedure set forth in C. Rivier et al., Science, 218, 377 (1982).

[2] = tested on: ACTH and B-END-LI secretion; test: ACTH and β-END-LI secretion in vivo after intravenous hCRF in rats
Method: Plasma levels of ACTH and B-END-LI are elevated for at least 5-20 minutes following the intraveneous administration of hCRF to nembutal-anesthesized male rats and to quiescent male or female rats with indwelling intravenous cannulae.

[3] = Lowering of blood pressure, in vivo testing by the general procedure of Example III
[4] = tested on: GRF-stimulated secretion of GH; test: Specificity: effect on GRF-stimulated GH secretion; type: cell-based
[5] = tested on: GnRH-stimulated secretion of LH and FSH; test: Specificity: effect on GnRH-stimulated LH and FSH secretion; type: cell-based
[6] = tested on: ACTH rise due to ether-exposure; test: Ether-exposure (stressor) induced ACTH rise in intact rats; type: in vivo
[7] = tested on: CRF-induced ACTH secretion; test: CRF-induced ACTH secretion in intact, non-anesthetized rats; type: in vivo
[8] = tested on: TRF-stimulated secretion of TSH and prolactin; test: Specificity: effect on TRF-stimulated TSH and prolactin secretion; type: cell-based
spontaneous ACTH release = test: Spontaneous ACTH release by adrenalectomized rats; type: in vivo; conditions: iv injection of 3 mg/kg BW (2.7 nmole)
Method: as §1
The in vivo effect of CRF antagonists is tested on the spontaneous ACTH release by adrenalectomized rats.

Row | Compound | secretion of ACTH and β-END-LI (antagonist test) [1] | further results
1 | CCCC[C@H](NC(=O)[C@H](CCC(=O)O)NC(=O)[C@H](CC(C)C)NC(=O)[C@@H](NC(=O)[C@H](CCC(=O)O)NC(=O)[C@H](CCCNC(=N)N)NC(=O)[C@H](CC(C)C)NC(=O)[C@H](CC(C)C)NC(=O)[C@H](Cc1c[nH]cn1)NC(=O)[C@H](Cc1ccccc1)NC(=O)[C@@H](NC(=O)[C@H](CC(C)C)NC(=O)[C@@H](N)CC(=O)O)[C@@H](C)O)C(C)C)C(=O)N[C@@H](C)C(=O)N[C@@H](CCCNC(=N)N)C(=O)N[C@@H](C)C(=O)N[C@@H](CCC(=O)O)C(=O)N[C@@H](CCC(N)=O)C(=O)N[C@@H](CC(C)C)C(=O)N[C@@H](C)C(=O)N[C@@H](CCC(N)=O)C(=O)N[C@@H](CCC(N)=O)C(=O)N[C@@H](C)C(=O)N[C@@H](Cc1ccc(O)cc1)C(=O)N[C@@H](CO)C(=O)N[C@@H](CC(N)=O)C(=O)N[C@@H](CCCNC(=N)N)C(=O)N[C@@H](CCCCN)C(=O)N[C@@H](CC(C)C)C(=O)N[C@@H](CCSC)C(=O)N[C@@H](CCC(=O)O)C(=O)N[C@H](C(=O)N[C@H](C(N)=O)[C@@H](C)CC)[C@@H](C)CC [[Nle^21, Tyr^32]-hCRF(9-41)] (H-DLTFHLLREVLE[Nle]ARAEQLAQQAYSNRKLMEII-NH2) | inhibits | 
2 | CC[C@H](C)[C@H](NC(=O)[C@@H](NC(=O)[C@H](CCC(=O)O)NC(=O)[C@H](CCSC)NC(=O)[C@H](CC(C)C)NC(=O)[C@H](CCCCN)NC(=O)[C@H](CCCNC(=N)N)NC(=O)[C@H](CC(N)=O)NC(=O)[C@H](CO)NC(=O)[C@H](Cc1c[nH]cn1)NC(=O)[C@H](C)NC(=O)[C@H](CCC(N)=O)NC(=O)[C@H](CCC(N)=O)NC(=O)[C@H](C)NC(=O)[C@H](CC(C)C)NC(=O)[C@H](CCC(N)=O)NC(=O)[C@H](CCC(=O)O)NC(=O)[C@H](C)NC(=O)[C@H](CCCNC(=N)N)NC(=O)[C@H](C)NC(=O)[C@H](CCSC)NC(=O)[C@H](CCC(=O)O)NC(=O)[C@H](CC(C)C)NC(=O)[C@@H](NC(=O)[C@H](CCC(=O)O)NC(=O)[C@H](CCCNC(=N)N)NC(=O)[C@H](CC(C)C)NC(=O)[C@H](CC(C)C)NC(=O)[C@H](Cc1c[nH]cn1)NC(=O)[C@H](Cc1ccccc1)NC(=O)[C@@H](NC(=O)[C@H](CC(C)C)NC(=O)[C@H](CC(=O)O)NC(=O)[C@H](CC(C)C)NC(=O)[C@H](CO)NC(=O)[C@@H](NC(=O)[C@@H]1CCCN1C(=O)[C@@H]1CCCN1C(=O)[C@H](CCC(=O)O)NC(=O)[C@H](CCC(=O)O)NC(=O)[C@@H](N)CO)[C@@H](C)CC)[C@@H](C)O)C(C)C)[C@@H](C)CC)C(N)=O [hCRF] |  | time for which plasma levels of ACTH and B-END-LI are elevated ([2]; intravenous administration, nembutal-anesthetized male rats and quiescent male or female rats with indwelling intravenous cannulae): 5 to 20 min; ACTH and B-END-LI secretion in vivo ([2]; several rat preparations): powerful stimulator
3 | Ac-DLTFHLLREVLEMARAEQLAQQAHSNRKLMDII-NH2 [[Acetyl-Asp^9, Asp^39]-hCRF(9-41)] | inhibits | 
4 | H-Asp-CML-Thr-Leu-Glu-CML-CML-Arg-Glu-Met-CML-Glu-Met-CMA-Lys-Ala-Glu-Gln-CML-Ala-Glu-Gln-Ala-CMA-CML-Asn-Arg-Leu-CML-Leu-Glu-Glu-. CMA-NB2 | inhibits | 
5 | H-Asp-CML-Thr-Leu-Glu-CML-Leu-Arg-Glu-Met-CML-Glu-Met-Ala-Lys-Ala-Glu-Gln-CML-Ala-Glu-Gln-Ala-Ala-CML-Asn-Arg-Leu-CML-Leu-Glu-Glu-Ala-NH2 [[CML^10,14,19,27,33,38]-AHC(9-41)] | stimulates | lowering of blood pressure [3]: very significant lowering of blood pressure
6 | H-DLSLELLRKMIEIAKQEKEKQQAANNRLLMDTI-NH2 [[Ala^21, Met^37]-sauvagine(8-40)] | inhibits | 
7 | H-DLSLELLRKMIEIEKQEKLKQQAANNRLLMDTI-NH2 [[Leu^26, Met^37]-sauvagine(8-40)] | inhibits | 
8 | H-DLTFALLREMLEMAKAEQEAEQAALNRLLLEEA-NH2 [[Ala^13]-AHC(9-41)] | inhibits | 
9 | H-DLTFELLREVLEVARAEQLAQQAHSNRKLMEII-NH2 [[G1u^13, Val^21]-hCRF(9-41)] | inhibits | 
10 | H-DLTFHLLREMLEMAKAEQEAEQAALNRLLLEEA-NH2 [AHC (9-41)] |  | effect on the GRF-stimulated secretion of GH [4]: no effect; effect on the GnRH-stimulated secretion of LH and FSH [5]: no effect; ACTH rise due to ether-exposure [6]: prevents most, but not all; inhibition of CRF-induced ACTH secretion [7]: dose-related inhibition; effect on the TRF-stimulated secretion of TSH and prolactin [8]: no effect; type of inhibition of oCRF-stimulated ACTH secretion ([1]; different concentrations of oCRF, several concentrations of antagonist against oCRF (1 nM)): competitive inhibition; plasma ACTH levels (spontaneous ACTH release) (spontaneous ACTH release): marked decrease
11 | H-DLTFHLLREVAEMTRAEQLAQQAHSNRKLMEII-NH2 [(Ala^19, Thr^22]-hCRF(9-41)] | inhibits | 
12 | H-DLTFHLLRNMIEMARNENQREQAGLNRKYLDEV-NH2 [Carp Urotensin 1(9-41)] | inhibits | 
13 | H-DLTLELLREMLEMAKAEQEAEQAALNRLLLEEA-NH2 [[Leu^12, Glu^13]-AHC(9-41)] | inhibits | 
14 | H-IDLTFHLLRNMIEMARNENQREQAGLNRKYLDEV-NH2 [Carp Urotensin 1(8-41)] | inhibits | 
15 | H-LDLTFHLLREVLEMAKAEQLAQQAHSNRKLLEII-NH2 [[Lys^23, Leu^38]-hCRF(8-41)] | inhibits | 
16 | H-LDLTLELLREMLEMEKAEKEAEQAALNRLLLEEA-NH2 [[G1u^13,22, Leu^l2, Lys^26]-AHC(8-41)] | inhibits | 
17 | LSLELLRKMIEARKQEKEKQQAANNRLLLDII-NH2 | inhibits | 

From patent EP0153845A2, “CRF analogs” (THE SALK INSTITUTE FOR BIOLOGICAL STUDIES, priority 1984, dated 1985)
